Assay results from patent US20240285723A1, “COMBINATION COMPOSITIONS FOR THE TREATMENT OF PATHOGEN INFECTIONS AND ASSOCIATED COMPLICATIONS” (priority 2021, published 2024).
Where no end group is shown, it is not given here.

What was measured:
T-cells = experiment: T-cell subsets in spleen and bone marrow of treated mice; assay type: in vivo, mouse; details: 5 μg/kg/day daily for 5 days; 12-week-old mice
Text: This is likely due to its strong immunosuppressive actions, including a severe weakening of the humoral/acquired immune system. Our proposed approach uses CB2 agonists that have immunomodulatory roles. On one hand, OGP strongly suppresses the innate immune system, exemplified here as inhibition of cytokine expression by activated macrophages (FIG. 6), and suppression of xylene-induced ear edema (FIG. 7). On the other hand, OGP has no suppressive effects on the adaptive/acquired system, exemplified here by the unaffected number of T cell subsets in mice treated with 5aa-OGP (FIG. 7). 12-week-old mice were injected with 5 μg/kg/day 5aa-OGP, 3 mg/kg/day HU910, or with a vehicle control daily for 5 days. The spleen and bone marrow (BM) were analyzed.

LPS-injected mice = experiment: LPS-induced septic shock mouse model: survival and murine sepsis score (MSS); assay type: in vivo; details: for disease progression (MSS), compound alone / survival (MSS<3), compound alone: BCP 25 mg/kg or pregnenolone 10 mg/kg i.p. every 12 hrs from 24 h before LPS, n=7
Method: Male wild type 8-10 weeks old mice of inbred strain C57BL/6J-RCC were obtained from Envigo Ltd. All experiments were in accordance and with the approval of the institutional animal care and use committee of Tel-Aviv University for these experiments (permit number 01-20-022). The mice were divided into treatment groups 24 hours before LPS administration. All treatments were administered intraperitoneally (IP). OGP was administered at the indicated doses only twice, 24 hrs before LPS and right before the LPS at a dose of 0.5, 5 or 15 μg/kg. Olorinab was administered at 0.33, 1, or 5 mg/kg twice a day starting 24 hours before LPS. DHEA was injected once a day at a dose of 30 mg/kg, starting 24 hr before LPS injection. β-Caryophyllene (BCP or BCP, used herein interchangeably) and Pregnenolone were injected every 12 hours starting 24 h before the LPS injection. A single IP injection of LPS was administered at 25 μg/gr dose. This study had 2 control groups as indicated in the experiments below. One that received PBS instead of the LPS injection (‘PBS’), and one that received PBS instead of the treatments (CB2 agonist or steroid) before the LPS injection (‘LPS’). For humane reasons murine sepsis score (MSS) was used as a surrogate for survival (Mai et al. Intensive Care Med Exp, 2018 Jul. 27; 6(1):20. doi: 10.1186/s40635-018-0184-3). A low MSS score (0-2) served as a surrogate for survival while mice that reached the score 3 were defined as critically ill and were euthanized.
Statistical analyses—For survival experiments, Gehan-Breslow-Wilcoxon test was used for multiple groups comparison. For disease progression Dunnett's multiple comparisons test was used. Differences between groups were considered significant when P<0.05.
A dose response experiment was conducted to test the potential effect of 5aa-OGP in the sepsis model (FIG. 1A). A single injection of 5aa-OGP was administered i.p. at 3 different doses, 0.5 μg/kg, 5 μg/kg and 15 μg/kg, 24 hours prior to the LPS injection; these concentrations were chosen based on the previous works in the lab.
In a separate experiment, mice received a single i.p. injection of the optimal dose of 5aa-OGP (5 μg/kg) and 24 hours later were intraperitoneal (i.p) injected with a lethal dose of LPS. Control mice received a single PBS injection 24 hours prior to LPS injection.
In order to test the therapeutic potential of another CB2 agonist, olorinab was tested in improving survival rate in a mouse model of septic shock induced by LPS injection. Olorinab was administered i.p. 24 hours prior to LPS injection followed by twice-daily injections of olorinab.
The combinations DHEA+olorinab and DHEA+5aa-OGP were tested versus each compound alone and versus vehicle only (no treatment) in LPS-injected mice. The mice received the first dose of treatment 24 hr before LPS injection in the treated groups. All the injections were given i.p., olorinab doses were administered twice a day, DHEA and 5aa-OGP were administered once a day. LPS was given only once.
The combination BCP+Pregnenolone was tested versus each compound alone and versus vehicle only (no treatment) in LPS-injected mice. Mice were pre-treated with ß-Caryophyllene (BCP. 25 mg/kg) and pregnenolone (Preg, 10 mg/kg), separately (FIG. 4A) and in combination 24 and 12 hrs before LPS injection (25 mg/kg) and then every 12 hrs. All the injections were given i.p., twice a day. LPS was given only once. A Murine Septic Score (MSS) was recorded every 12 hours (FIGS. 4A and 4C). Survival (FIGS. 4B and 4D) was defined as MSS<3. * P<0.05, n=7.

COVID-19 patients = COVID-19 patients who did not require oxygen; cited from earlier work
[1] = test system: patients with dcSSc or dermatomyositis; details: Phase II; dcSSc and dermatomyositis with active skin involvement; cited from earlier work
polymicrobial sepsis = details: mice; Oberbeck et al. 2001; cited from earlier work

## YGFGG [5aa-OGP]
T-cells
  effect on T-cells in spleen and bone marrow: did not affect T-cells

## C=C1CC/C=C(\C)CC[C@@H]2[C@@H]1CC2(C)C [BCP, β-caryophyllene]
LPS-injected mice
  disease progression (MSS), compound alone: slight beneficial effect
  survival (MSS<3), compound alone: no significant effect

## CC(C)(C)[C@@H](CO)NC(=O)c1nn(-c2c[n+]([O-])ccn2)c2c1C[C@@H]1C[C@H]21 [olorinab]
LPS-injected mice; 0.33 mg/kg twice daily, i.p.
  survival percentage at 0.33 mg/kg: best survival percentage
LPS-injected mice; 1 mg/kg twice daily, i.p., p<0.05
  survival percentage at 1 mg/kg: best survival percentage
LPS-injected mice; olorinab 0.33, 1 or 5 mg/kg i.p. twice daily from 24 h before LPS
  survival of LPS treated mice, different doses: beneficial effect

## C[C@@H]1C[C@H]2[C@@H]3CCC4=CC(=O)C=C[C@]4(C)[C@@]3(F)[C@@H](O)C[C@]2(C)[C@@]1(O)C(=O)CO [dexamethasone]
COVID-19 patients
  mortality, patients who did not require oxygen: significantly increased mortality

## CCCCCCC(C)(C)c1cc(O)c2c(c1)OC(C)(C)[C@@H]1CC=C(C(=O)O)C[C@@H]21 [Lenabasum]
[1]
  physician-assessed and patient-reported efficacy outcomes: improvement

## CC(=O)[C@H]1CC[C@H]2[C@@H]3CC=C4C[C@@H](O)CC[C@]4(C)[C@H]3CC[C@]12C [Pregnenolone, pregn-5-en-3β-ol-20-one]
LPS-injected mice
  disease progression (MSS), compound alone: no significant effect
  survival (MSS<3), compound alone: no significant effect

## C[C@]12CC[C@H](O)CC1=CC[C@@H]1[C@@H]2CC[C@]2(C)C(=O)CC[C@@H]12 [DHEA, Dehydroepiandrosterone]
Polymicrobial sepsis
  TNF-α release: reduction
  activity of T-cellular immunity: improved activity
  survival in septic challenge: increased survival
